Measured values published in patent US8481537B2, “Caspase inhibitors based of pyridazinone scaffold” (LG Life Sciences Ltd., priority 2006, dated 2013).

Key:
Caspase-8 = target: T1, Caspase-8 (Homo sapiens, UniProt Q14790); test: Caspase inhibitory effect, fluorescent substrate AcDEVD-AFC; type: biochemical; settings: pH 7.5; 2.1 nM caspase-8, 50 μM AcDEVD-AFC, 25° C., pH 7.50; read-out: Caspase-8 Kobs/[I] (converted)
T1 construct: p10 and p20 subunits (Thornberry, N. A. et al, Nature, 1992, 356, 768) were expressed in E. coli; made in house; host or cells: E. coli
T1 sequence (Q14790 217-374 limits assumed, species assumed): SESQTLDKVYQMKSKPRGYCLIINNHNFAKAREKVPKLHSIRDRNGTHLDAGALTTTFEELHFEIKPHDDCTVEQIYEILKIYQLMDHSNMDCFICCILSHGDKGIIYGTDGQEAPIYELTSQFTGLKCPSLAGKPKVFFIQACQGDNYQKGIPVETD
T1 sequence (Q14790 385-479 limits assumed, species assumed): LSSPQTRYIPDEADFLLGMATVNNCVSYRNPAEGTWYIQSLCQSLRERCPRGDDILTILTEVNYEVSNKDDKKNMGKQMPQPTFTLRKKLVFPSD
Method: Caspase-1 and caspase-8 known as cysteine proteases in the form of α2β2 were expressed, purified, and activated by modifying a method known in Thornberry, N. A. et al, Nature, 1992, 356, 768. Thornberry, N. A. Methods in Enzymology, 1994, 244, 615. Walker, N. P. C. et al. Cell, 1994, 78, 343, and caspase-9 was also purified by a similar method, and the inhibitory activity against them was tested. Briefly describing, p10 and p20 subunits (Thornberry, N. A. et al, Nature, 1992, 356, 768) were expressed in E. coli and purified by nickel column and anionic exchange chromatography to give caspase-1, caspase-8 and caspase-9. The fluorescent substrates AcYVAD-AFC for thus obtained caspase-1, AcDEVD-AFC for caspase-8, and AcLEHD-AFC for caspase-9, were used for determining specific activity of the synthesized inhibitors. The enzyme reaction was carried out at 25° C. with various concentrations of the inhibitors in a buffer solution containing 50 mM HEPES(pH 7.50), 10% (w/v) sucrose, 0.1% (w/v) CHAPS, 100 mM NaCl, 1 mM EDTA, and 10 mM DTT in the presence of 50 μM AcYVAD-AFC for 10 nM caspase-1, 50 μM AcDEVD-AFC for 2.1 nM caspase-8, and 150 μM AcLEHD-AFC for 200 nM caspase-9. The inhibitory constants Ki and Kobs of the inhibitors were determined by measuring the reaction velocity with the time lapse using a fluorescent spectrometer and by obtaining the initial rate constant. Ki was calculated from the Lineweaver Burk Plot, and Kobs from the following Equation 1. Kobs=−ln(1−At/Aoo)/t [Equation 1]
At means cleavage rate (%) at time t, and
Aoo means the maximum cleavage rate (%).
Spectra MAX GeminiXS Fluorescent Spectrometer of Molecular Device Co. was used at the excitation wavelength of 405 nm and the emission wavelength of 505 nm.

[1] = system: Jurkat cell (ATCC TIB-152); test: Jurkat cell apoptosis induced by Fas antibody, WST-1 method; type: cell-based; settings: Homo sapiens, amount of alive cells by WST-1
Method: The […] inhibitory activity of the inhibitors was determined by subjecting Jurkat cell (ATCC TIB-152) to apoptosis using Fas antibody (Upstate Biotech 05-201) and by detecting the color change according to the WST-1 method known in Francoeur A. M. and Assalian A. (1996) Biochemica 3, 19-25 to observe the amount of alive Jurkat cells when the cells were treated by the inhibitor. Spectra MAX 340 Spectrometer of Molecular Device Co. was used at the absorbance wavelength of 440 nm.

| kinact/KI (Caspase-8) | IC50 [1] | Structure (SMILES) |
| --- | --- | --- |
| 63300 M⁻¹ s⁻¹ | 12 nM | CC[C@@H](C(=O)N[C@@H](CC(=O)O)C(=O)COc1c(F)c(F)cc(F)c1F)c1ccnn(Cc2ccccc2C(C)(C)C)c1=O [Example 24-1, (S)-3-{(R)-2-[2-(2-tert-Butyl-benzyl)-3-oxo-2,3-dihydro-pyridazin-4-yl]-butyrylamino}-4-oxo-5-(2,3,5,6-tetrafluoro-phenoxy)-pentanoic acid] |
| 1830 M⁻¹ s⁻¹ | 4150 nM | CC[C@H](C(=O)N[C@@H](CC(=O)O)C(=O)COc1c(F)c(F)cc(F)c1F)c1ccnn(Cc2ccccc2C(C)(C)C)c1=O [Example 24-2, (S)-3-{(S)-2-[2-(2-tert-Butyl-benzyl)-3-oxo-2,3-dihydro-pyridazin-4-yl]-butyrylamino}-4-oxo-5-(2,3,5,6-tetrafluoro-phenoxy)-pentanoic acid] |
| 26700 M⁻¹ s⁻¹ | 31 nM | CC[C@@H](C(=O)N[C@@H](CC(=O)O)C(=O)COc1c(F)c(F)cc(F)c1F)c1ccnn(Cc2cccc(C(C)(C)C)c2)c1=O [Example 25-1, (S)-3-{(R)-2-[2-(3-tert-Butyl-benzyl)-3-oxo-2,3-dihydro-pyridazin-4-yl]-butyrylamino}-4-oxo-5-(2,3,5,6-tetrafluoro-phenoxy)-pentanoic acid] |
| 900 M⁻¹ s⁻¹ | 1940 nM | CC[C@H](C(=O)N[C@@H](CC(=O)O)C(=O)COc1c(F)c(F)cc(F)c1F)c1ccnn(Cc2cccc(C(C)(C)C)c2)c1=O [Example 25-2, (S)-3-{(S)-2-[2-(3-tert-Butyl-benzyl)-3-oxo-2,3-dihydro-pyridazin-4-yl]-butyrylamino}-4-oxo-5-(2,3,5,6-tetrafluoro-phenoxy)-pentanoic acid] |
| 28300 M⁻¹ s⁻¹ | 45 nM | CC[C@@H](C(=O)N[C@@H](CC(=O)O)C(=O)COc1c(F)ccc(F)c1F)c1ccnn(Cc2ccccc2C(C)(C)C)c1=O [Example 26-1, (S)-3-{(R)-2-[2-(2-tert-Butyl-benzyl)-3-oxo-2,3-dihydro-pyridazin-4-yl]-butyrylamino}-4-oxo-5-(2,3,6-trifluoro-phenoxy)-pentanoic acid] |
| 11700 M⁻¹ s⁻¹ | 90 nM | CC[C@@H](C(=O)N[C@@H](CC(=O)O)C(=O)COc1c(F)cccc1F)c1ccnn(Cc2ccccc2C(C)(C)C)c1=O [Example 27-1, (S)-3-{(R)-2-[2-(2-tert-Butyl-benzyl)-3-oxo-2,3-dihydro-pyridazin-4-yl]-butyrylamino}-5-(2,6-difluoro-phenoxy)-4-oxo-pentanoic acid] |
| 56700 M⁻¹ s⁻¹ | 365 nM | CCC(C(=O)N[C@@H](CC(=O)O)C(=O)COP(=O)(c1ccccc1)c1ccccc1)c1ccnn(Cc2ccccc2C(C)(C)C)c1=O (stereo partly drawn) [Example 28, (S)-3-{2-[2-(2-tert-Butyl-benzyl)-3-oxo-2,3-dihydro-pyridazin-4-yl]-butyrylamino}-5-(diphenyl-phosphinoyloxy)-4-oxo-pentanoic acid] |
